# Results from patent US11820729B2 (Johnson & Johnson Consumer Inc., priority 2014, dated 2023).
# What was measured:
# [1] = system: 16-hour salivary biofilm on pellicle coated hydroxyapatite pegs; assay: Prevention assay: prevention of bacterial attachment to pellicle coated hydroxyapatite pegs, ATP bioluminescence; format: cell-based; conditions: for prevention of bacterial attachment in alcohol free full formulations: Table 15 formulations, water as the only solvent; for prevention of bacterial attachment in alcohol-free full formulations: Table 17 formulations, water and propylene glycol as solvents; for ability to prevent bacterial attachment / preventing bacterial attachment the best: simple solution solvent base formulas (Table 11)
# Description: The formulations in Examples 2-4, 6, 8 and 9 were prepared and test for prevention of bacterial attachment using the prevention assay. In this assay hydroxyapatite-coated polystyrene peg plate (96 pegs, N=8 per group) was exposed to saliva for one minute to form a pellicle at a temperature of 35 C. Then, for each formulation, eight pegs (N=8) were pre-treated for ten minutes with the formulation using an orbital shaker set to 500 RPM at room temperature. As a negative control, eight pegs (N=8) were pre-treated for ten minutes with sterile water. Next, a 16-hour salivary biofilm was grown on these polystyrene peg plates at a temperature of 35 C.
# After all treatments were complete, the biofilm from each peg was neutralized and rinsed. The biofilm was harvested via sonication using a Q-Sonica Q700 Ultrasonic Liquid Processor with 431MP4-00 microplate horn Damper and 0.5:1 reverse gain booster (Q-Sonica, Newtown, Conn.). Using a Celsis Rapid Detection RapiScreen kit (Celsis International PLC, Chicago, Ill.), the bacteria were lysed with Celsis Luminex and then the adenosine triphosphate (ATP) from the lysed bacteria was measured using the bioluminescence marker Celcis Luminate and a Centro LB 960 Microplate Luminometer supplied by Berthold Technologies (Wildbad, Germany). Data were reported in log RLU (relative light units) where decreasing log RLUs indicated fewer viable bacteria remained on the biofilm substrate. The log RLUs for the prevention assay are shown on Tables 2, 4, 6, 10, 14, and 16.
# S. mutans biofilm = assay: S. mutans single species kill assay (in-vitro biofilm model); format: cell-based; conditions: simple solution formulas (Table 13), 30 second treatment
# Description: The formulations listed in Example 7 were prepared and tested using an in-vitro single species S. mutans biofilm model. A 24-hour S. mutans biofilm is grown on a polystyrene peg plate (96 pegs, N=6 per test group). The pegs were subsequently treated for thirty seconds with each of formulations H and I, as well as positive and negative controls. The treatment is applied as a single thirty (30) second treatment. The positive control is a commercially available essential oil mouth rinse. The negative control is sterile water. After treatment the biofilm is neutralized and rinsed. The biofilm is harvested via sonication using a Misonix Ultrasonic Liquid Processor (Farmingdale, N.Y.). Using a Celsis Rapid Detection RapiScreen kit (Celsis International PLC, Chicago), the bacteria are lysed with Celsis Luminex and then the adenosine triphosphate (ATP) from the lysed bacteria is measured using the bioluminescence marker LB960 Microplate Luminometer supplied by Berthold (Wildbad, Germany). Data are reported in log RLU (relative light units) where decreasing log RLUs indicates fewer viable bacteria remaining on the biofilm substrate.
# [2] = HPLC quantification of compound remaining after storage at 50° C.; format: physicochemical
# Description: Briefly, formulations containing either LAE or any of the 26 compounds and standards are diluted into a solution of 50% acetonitrile and 50% water. They are evaluated on an Agilent HPLC using a Zorbax ion exchange column. In the method, 10 uL of the sample is withdrawn and ran through the HPLC with a 40% potassium phosphate (molarity at pH 3.0) 60% acetonitrile mobile phase. […] The molecule peak is auto integrated using the Online Agilent HPLC software. Comparisons are made to the standard to identify the % of compound remaining following storage.
Structure (SMILES),prevention of bacterial attachment in alcohol free full formulations [1],prevention of bacterial attachment in alcohol-free full formulations [1],ability to prevent bacterial attachment [1],preventing bacterial attachment the best [1],log reduction in S. mutans (S. mutans biofilm),structural stability via HPLC in simple solution formulations ([2]; storage at 50° C. for 4 and 8 weeks (Table 13 formulas)),"effect of presence of essential oils (EOs) on prevention of bacterial attachment ([1]; 0.15 wt % compound 9, Table 6)","effect of surfactant on prevention of bacterial attachment ([1]; 0.15 wt % compound 9, Table 6)","prevention of bacterial attachment in full formula ([1]; 0.15 wt % in alcohol free base, compositions K-R)",efficacy at preventing bacterial attachment ([1]; 0.15 wt % in water),"prevention of bacterial attachment compared with LAE ([1]; 0.15 wt %, 21.6% alcohol and water-based solution)",most effective concentration for prevention of bacterial attachment ([1]; compound 9 in simple water solution (Table 1 compositions)) [wt %],"concentration effect on prevention of bacterial attachment ([1]; compound 9 in water, 0.01-0.4 w/w %)","% of molecule maintained out to 8 weeks when stored at 50° C. ([2]; 8 weeks, 50° C., HPLC, formulations of Table 7)","stability in an alcohol-free formulation ([2]; storage at 50° C., HPLC)"
"CCCCCCCC(=O)NC(CCCNC(=N)N)C(=O)NCC (centres unmarked) [Compound 2, [amino({[4-(ethylcarbamoyl)-4-octanamidobutyl]amino})methylidene]azanium]",Prevent Bacterial Attachment,Prevent Bacterial Attachment,have the ability to prevent bacterial attachment,preventing bacterial attachment the best,do not Result in More than a One Log Reduction in S. mutans,significant decrease in peak area,–,–,–,–,–,–,–,–,–
"CCCCCCCCCCCC(=O)NC(CCCNC(=N)N)C(=O)NCC (centres unmarked) [Compound 9, [amino({[4-dodecanamido-4-(ethylcarbamoyl)butyl]amino})methylidene]azanium]",Prevent Bacterial Attachment,Prevent Bacterial Attachment,have the ability to prevent bacterial attachment,preventing bacterial attachment the best,do not Result in More than a One Log Reduction in S. mutans,–,has no effect,has a major effect,Prevents Bacterial Attachment in Full Formula,demonstrated efficacy at preventing bacterial attachment,equally as efficacious as LAE,0.3,dose dependent response,at least 90%,Maintains Stability
